{
  "source": "patent US10996170B2",
  "about": "“Device and method for imaging shortwave infrared fluorescence” (Massachusetts Institute of Technology, priority 2016, dated 2021)",
  "system": "liver",
  "test": "SWIR imaging of hepatobiliary clearance in vivo",
  "details": "1.7 mg/kg intravenously; mouse",
  "method": "When injected into a living system, indocyanine green is metabolized by the liver and excreted by the liver and bile ducts by a process called hepatobiliary clearance. This process was observed, noninvasively, by injecting a solution of indocyanine green intravenously into a mouse and using an SWIR imaging system as described herein to observe the fluorescence of indocyanine green. The dye was injected at a dose of 1.7 mg/kg which is below the maximum recommended dose of indocyanine green in humans. […] Despite the fact that 1500 nm is far from the peak emission of indocyanine green, there is sufficient emission intensity from the tail of the emission peak in this wavelength region to obtain a SWIR fluorescence image. Separately, hepatobiliary excretion of ICG into the small intestine in a mouse was also imaged using a near video rate imaging of 19.7 frames per second using a 1200 nm long-pass filter, which enabled capturing the peristaltic movements of the small intestine. Although the frame rate was slower, 2.0 frames per second, it was possible to image the ICG clearance using a 1500 nm long-pass filter, capturing wavelengths between roughly 1500 and 1620 nm.",
  "data": [
    {"smiles": "CC1(C)C(/C=C/C=C/C=C/C=C2\\N(CCCCS(=O)(=O)O)c3ccc4ccccc4c3C2(C)C)=[N+](CCCCS(=O)(=O)[O-])c2ccc3ccccc3c21", "note": "[ICG, indocyanine green]", "values": [
      {"measurement": "tissue distribution observed by SWIR fluorescence", "result": "Accumulation of indocyanine green in the liver"}
    ]}
  ]
}
